Assay results reported in patent publication US20190375708A1 (VenatoRx Pharmaceuticals, Inc., priority 2018, published 2019).

Key:
[1] = In vitro cytotoxicity assay (MTT cell viability) in HepG2 cells; format: cell-based, human; conditions: human
How it was run: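 Parental HepG2 cells in EMEM + 10% FBS were exposed to compounds (8 half-log dilutions, 30 μM to 1.0 nM) for 7 days at 37 °C, 5% CO2. MTT was then added for 3-4 h, formazan dissolved in DMSO and absorbance read at 492 nm; CC50 came from 4-parameter fits against vehicle controls.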

[2] = test system: HBV replication in HepAD38 cells; test: Anti-HBV replication assay in HepAD38 cells (QPCR of extracellular HBV DNA); format: cell-based, HBV (genotype D, serotype ayw); conditions: Hepatitis B virus, 168 h, 7 days incubation, extracellular HBV DNA by QPCR, read-out: Anti-HBV EC50
How it was run: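 Tet-off HepAD38, 7-day compound exposure ([…], 1 log10 steps, DMSO vehicle), 37 °C. Extracellular HBV DNA by QPCR, copies/mL via standard curve, % inhibition vs vehicle, EC50 by 4-parameter regression. Entecavir as positive control.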

Compound | CC50 at 7 days [1] [nM] | EC50 [2] [nM]
Cc1cc(NC(=O)c2c(C)c(C(=O)C(=O)NC3(C(=O)NC(C)C)CCOCC3)n(C)c2C)ccc1F [Example 303, N-(4-fluoro-3-methylphenyl)-5-(2-((4-(isopropylcarbamoyl)tetrahydro-2H-pyran-4-yl)amino)-2-oxoacetyl)-1,2,4-trimethyl-1H-pyrrole-3-carboxamide] | > 30000 | < 50
Cc1noc([C@H](NC(=O)C(=O)c2c(C)c(C(=O)Nc3ccc(F)c(C)c3)c(C)n2C)C(C)C)n1 [Example 144, (R)-N-(4-fluoro-3-methylphenyl)-1,2,4-trimethyl-5-(2-((2-methyl-1-(3-methyl-1,2,4-oxadiazol-5-yl)propyl)amino)-2-oxoacetyl)-1H-pyrrole-3-carboxamide] | > 30000 | < 50
Cc1cc(NC(=O)c2c(C)c(C(=O)C(=O)N[C@H](CO)[C@@H](C)O)n(CCF)c2C)ccc1F [Example 177, 5-(2-(((2R,3R)-1,3-dihydroxybutan-2-yl)amino)-2-oxoacetyl)-N-(4-fluoro-3-methylphenyl)-1-(2-fluoroethyl)-2,4-dimethyl-1H-pyrrole-3-carboxamide] | 5000 to 30000 | 50 to 499
Cc1cc(NC(=O)c2c(C)c(C(=O)C(=O)NC3(CN4CCOCC4)CCCC3)n(C)c2C)ccc1F [Example 595, N-(4-fluoro-3-methylphenyl)-1,2,4-trimethyl-5-(2-((1-(morpholinomethyl)cyclopentyl)amino)-2-oxoacetyl)-1H-pyrrole-3-carboxamide] | > 30000 | < 50
CCn1c(C)c(C(=O)Nc2ccc(F)c(C)c2)c(C)c1C(=O)C(=O)N[C@H]1CC[C@@H](O)CC1 [Example 284, 1-ethyl-N-(4-fluoro-3-methylphenyl)-5-(2-(((1s,4s)-4-hydroxycyclohexyl)amino)-2-oxoacetyl)-2,4-dimethyl-1H-pyrrole-3-carboxamide] | > 30000 | < 50
CC(C)(CO)CNC(=O)C(=O)c1c(Cl)c(C(=O)Nc2ccc(F)c(F)c2)c2n1CCCC2 [Example 528, 2-chloro-N-(3,4-difluorophenyl)-3-(2-((3-hydroxy-2,2-dimethylpropyl)amino)-2-oxoacetyl)-5,6,7,8-tetrahydroindolizine-1-carboxamide] | 500 to 4990 | 500 to 1000
Cc1cc(NC(=O)c2c(Cl)c(C(=O)C(=O)NC(C)(C)C)n(C)c2C)ccc1F [Example 363, 5-(2-(tert-butylamino)-2-oxoacetyl)-4-chloro-N-(4-fluoro-3-methylphenyl)-1,2-dimethyl-1H-pyrrole-3-carboxamide] | > 30000 | < 50
Cc1cc(NC(=O)c2c(C)c(C(=O)C(=O)NC3(c4nnn[nH]4)CCCC3)n(C)c2C)ccc1F [Example 636, 5-(2-((1-(1H-tetrazol-5-yl)cyclopentyl)amino)-2-oxoacetyl)-N-(4-fluoro-3-methylphenyl)-1,2,4-trimethyl-1H-pyrrole-3-carboxamide] | > 30000 | < 50
Cc1noc(C(C)NC(=O)C(=O)c2c(C)c(C(=O)Nc3ccc(F)c(C)c3)c(C)n2C)n1 (stereo not shown) [Example 82, N-(4-fluoro-3-methylphenyl)-1,2,4-trimethyl-5-(2-((1-(3-methyl-1,2,4-oxadiazol-5-yl)ethyl)amino)-2-oxoacetyl)-1H-pyrrole-3-carboxamide] | > 30000 | < 50
Cc1cc(NC(=O)c2c(C)c(C(=O)C(=O)NC3(C)CCN(C(=O)c4cnn5cccnc45)CC3)n(C)c2C)ccc1F [Example 719, N-(4-fluoro-3-methylphenyl)-1,2,4-trimethyl-5-(2-((4-methyl-1-(pyrazolo[1,5-a]pyrimidine-3-carbonyl)piperidin-4-yl)amino)-2-oxoacetyl)-1H-pyrrole-3-carboxamide] | > 30000 | < 50
CC(C)(C)NC(=O)C(=O)c1cc(C(=O)Nc2ccc(F)c(C#N)c2)c2n1CCOC2 [Example 582, 6-(2-(tert-butylamino)-2-oxoacetyl)-N-(3-cyano-4-fluorophenyl)-3,4-dihydro-1H-pyrrolo[2,1-c][1,4]oxazine-8-carboxamide] | > 30000 | > 1000
Cc1cc(NC(=O)c2c(C)c(C(=O)C(=O)N[C@]3(C)CC[C@H](O)CC3)n(C)c2C)ccc1F [Example 228, N-(4-fluoro-3-methylphenyl)-5-(2-(((1s,4s)-4-hydroxy-1-methylcyclohexyl)amino)-2-oxoacetyl)-1,2,4-trimethyl-1H-pyrrole-3-carboxamide] | > 30000 | < 50
Cc1cc(NC(=O)c2c(C)c(C(=O)C(=O)N[C@H]3CC[C@H](O)CC3)n(C)c2C)cnc1F [Example 175, N-(6-fluoro-5-methylpyridin-3-yl)-5-(2-(((1r,4r)-4-hydroxycyclohexyl)amino)-2-oxoacetyl)-1,2,4-trimethyl-1H-pyrrole-3-carboxamide] | > 30000 | 50 to 499
Cc1cc(NC(=O)c2c(C)c(C(=O)NC(C)(C)CN3CCOCC3)n(C)c2C)ccc1F [Example 349, N4-(4-fluoro-3-methylphenyl)-1,3,5-trimethyl-N2-(2-methyl-1-morpholinopropan-2-yl)-1H-pyrrole-2,4-dicarboxamide] | > 30000 | > 1000
Cc1c(C(=O)Nc2cccc(Cl)c2)c(C)n(C)c1C(=O)C(=O)N[C@H]1CC[C@@H](O)CC1 [Example 602, N-(3-chlorophenyl)-5-(2-(((1s,4s)-4-hydroxycyclohexyl)amino)-2-oxoacetyl)-1,2,4-trimethyl-1H-pyrrole-3-carboxamide] | > 30000 | < 50
Cc1cc(NC(=O)c2c(C)c(C(=O)C(=O)NC3CCNC(=O)C3)n(C)c2C)ccc1F (stereo not shown) [Example 286, N-(4-fluoro-3-methylphenyl)-1,2,4-trimethyl-5-(2-oxo-2-((2-oxopiperidin-4-yl)amino)acetyl)-1H-pyrrole-3-carboxamide] | > 30000 | < 50
Cc1cc(NC(=O)c2c(C)c(C(=O)C(=O)NCc3cnc(N)s3)n3c2CCCC3)cnc1F [Example 473, 3-(2-(((2-aminothiazol-5-yl)methyl)amino)-2-oxoacetyl)-N-(6-ffluoro-5-methylpyridin-3-yl)-2-methyl-5,,6,7,8-tetrahydroindolizine--1 carboxamide] | > 30000 | 500 to 1000
CCn1c(C)c(C(=O)Nc2ccc(F)c(C)c2)c(C)c1C(=O)C(=O)NC(C)(C)C [Example 96, 5-(2-(tert-butylamino)-2-oxoacetyl)-1-ethyl-N-(4-fluoro-3-methylphenyl)-2,4-dimethyl-1H-pyrrole-3-carboxamide] | > 30000 | < 50
Cc1cc(NC(=O)c2c(C)c(C(=O)C(=O)N[C@H](C(=O)OC(C)(C)C)C(C)(C)C)n(C)c2C)ccc1F [Example 23, tert-butyl (S)-2-(2-(4-((4-fluoro-3-methylphenyl)carbamoyl)-1,3,5-trimethyl-1H-pyrrol-2-yl)-2-oxoacetamido)-3,3-dimethylbutanoate] | > 30000 | 50 to 499
Cc1c(C(=O)Nc2ccc(F)c(Cl)c2)c(C)n(C)c1C(=O)C(=O)Nc1ccc(F)nc1 [Example 312, N-(3-chloro-4-fluorophenyl)-5-(2-((6-fluoropyridin-3-yl)amino)-2-oxoacetyl)-1,2,4-trimethyl-1H-pyrrole-3-carboxamide] | 5000 to 30000 | < 50
